From patent EP1739169B1, “Clinical diagnostic reagent comprising glucose 6-phosphate dehydrogenase (G6PDH), method for stabilizing G6PDH, and use of a stabilizer for G6PDH” (SYSMEX CORPORATION, priority 2005, dated 2007)

Legend:
[1] = Residual amount of SH group of NAC in the reagent after heat loading at 37°C (quantification with DTNB, absorbance at 412 nm); format: physicochemical; settings: heat loading at 37°C for 5 days; for SH group residual amount: relative to reagent without heat loading
Protocol: (§1) Aminoguanidine was added to the above composition to prepare three kinds of reagents different in the concentration of aminoguanidine. The concentrations of aminoguanidine in these reagents were 10 mM, 20 mM and 40 mM respectively. After these reagents were subjected to heat loading at 37°C for 5 days, the residual activity of G6PDH was measured and the residual amount of SH group in NAC was quantified.
The quantification of SH group was carried out by using DTNB (5,5'-dithiobis(2-nitrobenzoic acid)). When DTNB is added to the reagent where NAC is present, disulfide linkages corresponding to the amount of SH groups in the NAC are cleaved to generate 5-mercapto-2-nitrobenzoic acid. When 5-mercapto-2-nitrobenzoic acid is generated, the absorbance at a wavelength of 412 nm is increased, and thus this increase can be measured to determine the amount of SH groups in the reagent.
(§2) In Table 1, the residual activity of G6PDH and the residual amount of SH group of NAC are expressed in percentage. These values are those relative to the activity of G6PDH and the amount of SH group of NAC in each reagent which without subjection to heat loading, was measured by the method described in Example 1. Table 1 […]

G6PDH = test: Residual activity of G6PDH in CK activity measurement reagent after heat loading at 37°C (NADPH formation, absorbance at 340 nm); format: biochemical; settings: heat loading at 37°C for 5 days; for G6PDH residual activity: relative to reagent without heat loading
Protocol: as §1
The activity of G6PDH was measured in the following manner. First, a solution wherein 20 mM magnesium chloride, 0.6 mM NADP and 0.5 mM G6P were dissolved in a solution containing 0.1 M glycylglycine (pH 8.5) was prepared. When 300 µl of this solution was mixed with 1 µl of the first reagent, NADPH is formed by the activity of G6DPH. When NADPH is formed, the absorbance at a wavelength of 340 nm is increased, and thus this increase is measured to determine the activity of G6PDH.
as §2

For `CC(=O)NN` [acetohydrazine, reference compound], the “amount of SH group of NAC after heat loading (in words)” value [1] was “NAC was deteriorated to reduce the amount of SH group”, the “SH group residual amount” value ([1]; stabilizer 20 mM in reagent) was 78.4% and the “SH group residual amount” value ([1]; stabilizer 40 mM in reagent) was 77.7%. The “activity of G6PDH after heat loading (in words)” value (G6PDH) was “the activity of G6PDH was lost”, the G6PDH residual activity (G6PDH; stabilizer 20 mM in reagent) was 84.3% and the G6PDH residual activity (G6PDH; stabilizer 40 mM in reagent) was 87.8%.

With `N=C(N)NN` [aminoguanidine] the “amount of SH group of NAC after heat loading (in words)” value [1] was “without reducing the amount of SH group”, the “SH group residual amount” value ([1]; stabilizer 10 mM in reagent) was 92.2% and the “SH group residual amount” value ([1]; stabilizer 20 mM in reagent) was 95.4%. The “SH group residual amount” value ([1]; stabilizer 40 mM in reagent) was 94.1%, the “activity of G6PDH after heat loading (in words)” value (G6PDH) was “the activity of G6PDH could be maintained” and the G6PDH residual activity (G6PDH; stabilizer 10 mM in reagent) was 88.2%. It also gave a G6PDH residual activity (G6PDH; stabilizer 20 mM in reagent) of 92.6% and a G6PDH residual activity (G6PDH; stabilizer 40 mM in reagent) of 94.8%.
